# Laboratory results reported in patent US20030045480A1, “Method of treating hyperresorptive bone disorders” (priority 2001, published 2003).
# Molecular target: Src Kinase (p60c-Src) (Homo sapiens, UniProt P12931)
# Test: General Assay Method for Src-Kinase (DELFIA time-resolved fluorometry, poly(Glu,Tyr) substrate)
# Type: biochemical
# Conditions: Src kinase 1:8000, 100 μM ATP, 15 min. at room temp; read-out: Activity (uMol. Delfia assay. IC50)
# Description: The compounds 1-25 above were assayed for activity with respect to the Src protein tyrosine kinase by the fluorometric method described in Measurement of the Protein Tyrosine Kinase Activity of c-Src Using Time-Resolved Fluorometry of Europium Chelates, Braunwalder, A. F. et al., Analytical Biochemistry 238, 159-164 (1996), the disclosure of which is incorporated herein by reference, using the materials and procedures further specified below.
# General Assay Method for Src-Kinase:
# Costar 384 Clear, non-treated, high-binding plates
# Sigma poly(Glu, Tyr) 4:1, Ave. MW 35,000
# Sigma ATP (1.5 mM Stock Soln. in H2O)
# MES Buffer: 30 mM MES (pH 6.8)
# MBI Buffer: (MES+0.4 mg/ml BSA+0.003% IGEPAL)
# Wallac Eu-labelled anti-phosphotyrosine Antibody (CR04-100)
# Antibody Dilution Buffer: (MES+3%BSA)
# DELFIA® Wash Solution (TTBS):
# DELFIA Enhancement Solution
# The plates were coated with 0.1 mg/ml poly(Glu, Tyr) in Coating Solution, 35 μl/well. It was let stand overnight at room temp. The plates were then washed 3 times with MES (100 μl/wash).
# The reaction was stopped by aspiration, and then washed 3 times with MES (100 μl/wash). 20 μl 0.4 ng/μl of antibody in Antibody Dilution Buffer (final=8 ng Ab/well) was added and then incubated for 30 min. at RT. The antibody solution was removed by aspiration and then washed 3 times with 1X DELFIA Wash Solution. 20 μl DELFIA Enhancement Solution was added and the value was read.
# Sequence of Src Kinase (p60c-Src) (P12931 whole entry): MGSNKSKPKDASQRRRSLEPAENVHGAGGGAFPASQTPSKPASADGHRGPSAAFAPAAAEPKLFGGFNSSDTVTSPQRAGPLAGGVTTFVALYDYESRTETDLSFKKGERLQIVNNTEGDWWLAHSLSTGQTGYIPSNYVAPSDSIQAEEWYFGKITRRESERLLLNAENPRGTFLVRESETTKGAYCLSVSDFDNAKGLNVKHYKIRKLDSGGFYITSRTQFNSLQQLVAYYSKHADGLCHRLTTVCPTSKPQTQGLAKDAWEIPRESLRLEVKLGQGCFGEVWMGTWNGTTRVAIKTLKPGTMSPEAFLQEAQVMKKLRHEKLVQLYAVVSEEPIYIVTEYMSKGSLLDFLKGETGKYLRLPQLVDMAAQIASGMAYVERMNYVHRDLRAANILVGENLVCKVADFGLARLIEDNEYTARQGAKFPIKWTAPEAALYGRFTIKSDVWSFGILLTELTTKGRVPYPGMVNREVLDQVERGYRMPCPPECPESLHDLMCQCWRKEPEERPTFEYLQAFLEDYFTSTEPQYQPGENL
row,IC50,Structure (SMILES)
1,22 µM,"N=C(N)c1ccc(C(=O)N(Cc2cccc(Oc3ccccc3)c2)C(Cc2ccc(-c3ccccc3)cc2)C(=O)NCC(N)=O)cc1 (stereo not shown) [Example 1, N-[4-Amidinobenzoyl]-N-[3-phenoxybenzyl]-3-(4-biphenyl)-alanyl-glycyl-amide]"
2,23 µM,"CC(C)(C)c1ccc(Oc2cccc(CN(C(=O)c3cccc(C(=N)N)c3)C(CC3CCCCC3)C(=O)NCC(N)=O)c2)cc1 (stereo not shown) [Example 2, 3-amidinobenzoyl-(3-(4-tert-butylphenoxy)benzyl)-cyclohexylylalanyl-glycyl-amide]"
3,45 µM,"CC(C)(C)c1ccc(Oc2cccc(CN(C(=O)c3cccc(C(=N)N)c3)C(Cc3ccc(N)cc3)C(=O)NCC(N)=O)c2)cc1 (stereo not shown) [Example 3, N-[3-Amidinobenzoyl]-N-[3-(4-tert-butylphenoxy)benzyl]-4-aminophenylalanyl-glycyl-amide]"
4,18 µM,"CC(C)(C)c1ccc(Oc2cccc(CN(C(=O)c3cccc(C(=N)N)c3)C(Cc3cccc4ccccc34)C(=O)NCC(N)=O)c2)cc1 (stereo not shown) [Example 4, N-[3-Amidinobenzoyl]-N-[3-(4-tert-butylphenoxy)benzyl]-1-naphthylalanyl-glycyl-amide]"
5,12.5 µM,"CC(C)(C)c1ccc(Oc2cccc(CN(C(=O)c3cccc(C(=N)N)c3)C(CCCNC(=N)N)C(=O)NCC(N)=O)c2)cc1 (stereo not shown) [Example 5, N-[3-Amidinobenzoyl]-N-[3-(4-tert-butylphenoxy)benzyl]-arginyl-glycyl-amide]"
6,14 µM,"CC(C)(C)c1ccc(Oc2cccc(CN(C(=O)c3ccc(C(=N)N)cc3)C(Cc3c[nH]c4ccccc34)C(=O)NCC(N)=O)c2)cc1 (stereo not shown) [Example 6, 4-amidinobenzoyl-(3-(4-tert-butylphenoxy)phenoxybenzyl)-tryptanyl-glycyl-amide]"
7,13 µM,"N=C(N)c1ccc(C(=O)N(Cc2ccc(-c3ccccc3)cc2)C(Cc2ccc(-c3ccccc3)cc2)C(=O)NCC(N)=O)cc1 (stereo not shown) [Example 7, N-[4-Amidinobenzoyl]-N-[4-biphenylmethyl]-3-(4-biphenyl)alanyl-glycyl-amide]"
8,8.5 µM,"NC(=O)C(Cc1ccc2ccccc2c1)NC(=O)Nc1ccc(N2CCN(C3CCCCC3)CC2)c(NC(=O)CCCc2ccccc2)c1 (stereo not shown) [Example 8, 4-Cyclohexyl-1-{[2-(4-phenylbutanoyl)amino]-4-[1-aminocarbonyl-2-(2-naphthyl)ethylamino]carbonylaminophenyl}piperazine]"
9,17 µM,"NC(=O)C(Cc1ccc2ccccc2c1)NC(=O)Nc1ccc(N2CCN(C3CCCCC3)CC2)c(NC(=O)/C=C/c2ccccc2)c1 (stereo not shown) [Example 9, 4-Cyclohexyl-1-{[2-cinnamoylamino]-4-[1-aminocarbonyl-2-(2-naphthyl)ethylamino]carbonylaminophenyl}piperazine]"
10,15.5 µM,"NC(=O)C(CCc1ccccc1)NC(=O)Nc1ccc(N2CCN(C3CCCCC3)CC2)c(NC(=O)/C=C/c2ccccc2)c1 (stereo not shown) [Example 10, 4-Cyclohexyl-1-{[2-cinnamoylamino]-4-[(1-aminocarbonyl-3-phenyl)propylamino]carbonylaminophenyl}piperazine]"
11,11 µM,"NC(=O)C(CCc1ccccc1)NC(=O)Nc1ccc(N2CCN(C3CCCCC3)CC2)c(NC(=O)CCCc2ccccc2)c1 (stereo not shown) [Example 11, 4-Cyclohexyl-1-{[2-(4-phenylbutanoyl)amino]-4-[(1-aminocarbonyl-3-phenyl)propylamino]carbonylaminophenyl}piperazine]"
12,18.5 µM,"NC(=O)C(CC1CCCCC1)NC(=O)Nc1ccc(N2CCN(C3CCCCC3)CC2)c(NC(=O)/C=C/c2ccccc2)c1 (stereo not shown) [Example 12, 4-Cyclohexyl-1-{[2-cinnamoylamino]-4-[(1-aminocarbonyl-2-cyclohexyl)ethylamino]carbonylaminophenyl}piperazine]"
13,13 µM,"NC(=O)C(Cc1ccc2ccccc2c1)NC(=O)Nc1ccc(N2CCCN(C(=O)C3CCNCC3)CC2)c(NC(=O)CCCc2ccccc2)c1 (stereo not shown) [Example 13, 4-(Piperidin-4-yl)carbonyl-1-{[2-(4-phenylbutanoyl)amino]-4-[1-aminocarbonyl-2-(2-naphthyl)ethylamino]carbonylaminophenyl}homopiperazine]"
14,2.75 µM,"NC(=O)C(Cc1ccc2ccccc2c1)NC(=O)Nc1ccc(N2CCCN(C(=O)C3CCNCC3)CC2)c(NC(=O)c2cc3ccccc3o2)c1 (stereo not shown) [Example 14, 4-(Piperidin-4-yl)carbonyl-1-{[2-(2-benzofuranoyl)amino]-4-[1-aminocarbonyl-2-(2-naphthyl)ethylamino]carbonylaminophenyl}homopiperazine]"
15,6.5 µM,"NC(=O)C(CC1CCCCC1)NC(=O)Nc1ccc(N2CCCN(C(=O)C3CCNCC3)CC2)c(NC(=O)c2cc3ccccc3o2)c1 (stereo not shown) [Example 15, 4-(Piperidin-4-yl)carbonyl-1-{[2-(2-benzofuranoyl)amino]-4-[1-aminocarbonyl-2-cyclohexylethylamino]carbonylaminophenyl}homopiperazine]"
16,36 µM,NC(=O)C1CCC(CNC(=O)Nc2ccc(N3CCCN(C(=O)C4CCNCC4)CC3)c(NC(=O)c3cc4ccccc4o3)c2)CC1 (stereo not shown) [Example 16]
17,37 µM,CNCC(=O)N1CCCN(c2ccc(NC(=O)NCC3CCC(C(N)=O)CC3)cc2NC(=O)c2cc3ccccc3o2)CC1 (stereo not shown) [Example 17]
18,19 µM,"NC(=O)C1CCC(CNC(=O)Nc2ccc(N3CCCN(C(=O)C4CCCN4)CC3)c(NC(=O)c3cc4ccccc4o3)c2)CC1 (stereo not shown) [Example 18, 4-(Pyrrolidin-2-yl)carbonyl-1-[2-[(2-benzo-furanoyl)amino]-4-[[(4-aminocarbonyl)cyclohexyl-methyl-amino]carbonylamino]phenyl] homopiperazine]"
19,22 µM,NC(=O)C1CCC(CNC(=O)Nc2ccc(N3CCC(N4CCCCC4)CC3)c(NC(=O)c3cc4ccccc4o3)c2)CC1 (stereo not shown) [Example 19]
20,28 µM,NC(=O)C(CC1CCCCC1)NC(=O)Nc1ccc(N2CCCN(C(=O)C3CCNCC3)CC2)c(NC(=O)CCCc2ccccc2)c1 (stereo not shown) [Example 20]
21,22 µM,NC(=O)C(CCc1ccccc1)NC(=O)Nc1ccc(N2CCCN(C(=O)C3CCNCC3)CC2)c(NC(=O)CCCc2ccccc2)c1 (stereo not shown) [Example 21]
22,14 µM,"CC(C)C(NS(=O)(=O)c1cc(NC(=O)C2CCCN2)ccc1N1CCC(Cc2ccccc2)CC1)C(N)=O (stereo not shown) [Example 22, N-(1-Aminocarbonyl-2-methylpropyl)-2-[(4-phenylmethyl)piperidin-1-yl]-5-[(2-pyrrolidinocarbonyl)amino]phenylsulfonamide]"
23,12 µM,CC(C)C(NS(=O)(=O)c1cc(NC(=O)C2CCNCC2)ccc1N1CCC(Cc2ccccc2)CC1)C(N)=O (stereo not shown) [Example 23]
24,42 µM,"CC(C)C(NS(=O)(=O)c1cc(NC(=O)/C=C/c2ccccc2)ccc1N1CCN(C2CCCCC2)CC1)C(N)=O (stereo not shown) [Example 24, 1-[2-[N-(2-Aminocarbonyl-3-methylbutyl)sulfonamido]-5-[2-cinnamoylamino]]phenyl-4-cyclohexylpiperazine]"
25,27.5 µM,"NC(=O)C1CCC(CNS(=O)(=O)c2cc(NC(=O)C3CCCN3)ccc2N2CCC(Cc3ccccc3)CC2)CC1 (stereo not shown) [Example 25, N-[[(4-Aminocarbonyl)cyclohexylmethyl]amino]-[2-[(4-phenylmethyl)piperidin-1-yl]-5-[(2-pyrrolidinocarbonyl)-amino]phenyl]sulfonamide]"
